Assay results from ChEMBL document CHEMBL3044672, “N9- and N7-(Chloromethyl Phenymethyl)Chloropurine Derivatives from , '-Dichloroxylenes: Synthesis and Anticancer Activity” (2005).

Assays:
Assay type in all cases: functional
OVCAR-8 = assay: Cytotoxicity against Homo sapiens (human) OVCAR8 cells after 48 hr by sulforhodamine B assay; settings: OVCAR-8, 48 h
OVCAR-5 = assay: Cytotoxicity against Homo sapiens (human) OVCAR5 cells after 48 hr by sulforhodamine B assay; settings: OVCAR-5, 48 h; for CC50: read-out: LC50 (the source's name)
UACC-257 = assay: Cytotoxicity against Homo sapiens (human) UACC257 cells after 48 hr by sulforhodamine B assay; settings: UACC-257, 48 h
SK-MEL-28 = assay: Cytotoxicity against Homo sapiens (human) SK-MEL-28 cells after 48 hr by sulforhodamine B assay; settings: SK-MEL-28, 48 h
M14 = assay: Cytotoxicity against Homo sapiens (human) M14 cells after 48 hr by sulforhodamine B assay; settings: M14, 48 h
U-251 = assay: Cytotoxicity against Homo sapiens (human) U251 cells after 48 hr by sulforhodamine B assay; settings: U-251, 48 h
SNB-75 = assay: Cytotoxicity against Homo sapiens (human) SNB75 cells after 48 hr by sulforhodamine B assay; settings: SNB-75, 48 h; for CC50: read-out: LC50 (the source's name)
SNB-19 = assay: Cytotoxicity against Homo sapiens (human) SNB19 cells after 48 hr by sulforhodamine B assay; settings: SNB-19, 48 h
MDA-MB-435 = assay: Cytotoxicity against Homo sapiens (human) MDA-MB-435 cells after 48 hr by sulforhodamine B assay; settings: MDA-MB-435, 48 h
BT-549 = assay: Cytotoxicity against Homo sapiens (human) BT549 cells after 48 hr by sulforhodamine B assay; settings: BT-549, 48 h
Hs-578T = assay: Cytotoxicity against Homo sapiens (human) Hs 578T cells after 48 hr by sulforhodamine B assay
[1] = Cytotoxicity against Homo sapiens (human) NCI-ADR-RES cells after 48 hr by sulforhodamine B assay
MCF7 [2] = assay: Cytotoxicity against Homo sapiens (human) MCF7 cells after 48 hr by sulforhodamine B assay; settings: MCF7, 48 h
SN12C = assay: Cytotoxicity against Homo sapiens (human) SN12C cells after 48 hr by sulforhodamine B assay
TK-10 = assay: Cytotoxicity against Homo sapiens (human) TK10 cells after 48 hr by sulforhodamine B assay; settings: TK-10, 48 h; for CC50: read-out: LC50 (the source's name)
CAKI-1 = assay: Cytotoxicity against Homo sapiens (human) Caki1 cells after 48 hr by sulforhodamine B assay; settings: CAKI-1, 48 h; for CC50: read-out: LC50 (the source's name)
SF-268 = assay: Cytotoxicity against Homo sapiens (human) SF268 cells after 48 hr by sulforhodamine B assay; settings: SF-268, 48 h; for CC50: read-out: LC50 (the source's name)
HT-29 = assay: Cytotoxicity against Homo sapiens (human) HT-29 cells after 48 hr by sulforhodamine B assay; settings: HT-29, 48 h; for CC50: read-out: LC50 (the source's name)
COLO 205 = assay: Cytotoxicity against Homo sapiens (human) COLO205 cells after 48 hr by sulforhodamine B assay; settings: COLO 205, 48 h; for CC50: read-out: LC50 (the source's name)
NCI-H522 = assay: Cytotoxicity against Homo sapiens (human) NCI-H522 cells after 48 hr by sulforhodamine B assay; settings: NCI-H522, 48 h; for CC50: read-out: LC50 (the source's name)
NCI-H460 [3] = assay: Cytotoxicity against Homo sapiens (human) NCI-H460 cells after 48 hr by sulforhodamine B assay; settings: NCI-H460, 48 h; for CC50: read-out: LC50 (the source's name)
NCI-H23 = assay: Cytotoxicity against Homo sapiens (human) NCI-H23 cells after 48 hr by sulforhodamine B assay; settings: NCI-H23, 48 h; for CC50: read-out: LC50 (the source's name)
NCI-H226 = assay: Cytotoxicity against Homo sapiens (human) NCI-H226 cells after 48 hr by sulforhodamine B assay; settings: NCI-H226, 48 h; for CC50: read-out: LC50 (the source's name)
HOP-92 = assay: Cytotoxicity against Homo sapiens (human) HOP92 cells after 48 hr by sulforhodamine B assay; settings: HOP-92, 48 h
K562 = assay: Cytotoxicity against Homo sapiens (human) K562 cells after 48 hr by sulforhodamine B assay; settings: K562, 48 h; for CC50: read-out: LC50 (the source's name)
MCF7 [4] = assay: Cytotoxicity against Homo sapiens (human) MCF7 cells assessed as cell growth at 10^-4 M after 48 hr by Alamar blue assay; settings: MCF7, 48 h, read-out: Activity
NCI-H460 [5] = assay: Cytotoxicity against Homo sapiens (human) NCI-H460 cells assessed as cell growth at 10^-4 M after 48 hr by Alamar blue assay; settings: NCI-H460, 48 h, read-out: Activity

Structure (SMILES): ClCc1cccc(Cn2cnc3c(Cl)ncnc32)c1
- GI50 (OVCAR-8): 21.9 µM
- LC50 (concentration killing 50% of cells) (OVCAR-8): 79.4 µM
- TGI (OVCAR-8): 41.7 µM
- GI50 (OVCAR-5): 2.08 µM
- TGI (OVCAR-5): 4.36 µM
- CC50 (OVCAR-5): 8.91 µM
- GI50 (UACC-257): 20.4 µM
- LC50 (concentration killing 50% of cells) (UACC-257): 67.6 µM
- TGI (UACC-257): 37.1 µM
- GI50 (SK-MEL-28): 2.23 µM
- LC50 (concentration killing 50% of cells) (SK-MEL-28): 28.8 µM
- TGI (SK-MEL-28): 5.75 µM
- GI50 (M14): 1.66 µM
- LC50 (M14): 6.6 µM
- TGI (M14): 3.31 µM
- GI50 (U-251): 1.82 µM
- LC50 (concentration killing 50% of cells) (U-251): 6.76 µM
- TGI (U-251): 3.46 µM
- GI50 (SNB-75): 2.08 µM
- TGI (SNB-75): 4.57 µM
- CC50 (SNB-75): 10 µM
- GI50 (SNB-19): 2.63 µM
- LC50 (SNB-19): > 100 µM
- TGI (SNB-19): 12.6 µM
- GI50 (MDA-MB-435): 1.69 µM
- LC50 (MDA-MB-435): 6.45 µM
- TGI (MDA-MB-435): 3.31 µM
- GI50 (BT-549): 15.1 µM
- LC50 (50% lethal concentration) (BT-549): 60.3 µM
- TGI (BT-549): 30.2 µM
- GI50 (Hs-578T): 3.46 µM
- LC50 (Hs-578T): 81.3 µM
- TGI (Hs-578T): 11.5 µM
- GI50 [1]: 2.45 µM
- LC50 (concentration killing 50% of cells) [1]: 37.1 µM
- TGI [1]: 7.58 µM
- GI50 (MCF7 [2]): 7.76 µM
- LC50 (concentration killing 50% of cells) (MCF7 [2]): > 100 µM
- TGI (MCF7 [2]): 77.6 µM
- GI50 (SN12C): 2.34 µM
- LC50 (50% lethal concentration) (SN12C): 14.5 µM
- TGI (SN12C): 5.12 µM
- GI50 (TK-10): 4.57 µM
- TGI (TK-10): 16.2 µM
- CC50 (TK-10): 46.8 µM
- GI50 (CAKI-1): 1.54 µM
- TGI (CAKI-1): 2.95 µM
- CC50 (CAKI-1): 5.62 µM
- GI50 (SF-268): 3.54 µM
- TGI (SF-268): 15.5 µM
- CC50 (SF-268): > 100 µM
- GI50 (HT-29): 3.23 µM
- TGI (HT-29): > 100 µM
- CC50 (HT-29): > 100 µM
- GI50 (COLO 205): 3.09 µM
- TGI (COLO 205): 10.5 µM
- CC50 (COLO 205): 74.1 µM
- GI50 (NCI-H522): 18.6 µM
- TGI (NCI-H522): 66.1 µM
- CC50 (NCI-H522): > 100 µM
- GI50 (NCI-H460 [3]): 11.8 µM
- TGI (NCI-H460 [3]): 36.3 µM
- CC50 (NCI-H460 [3]): > 100 µM
- GI50 (NCI-H23): 1.9 µM
- TGI (NCI-H23): 4.07 µM
- CC50 (NCI-H23): 8.71 µM
- GI50 (NCI-H226): 2.13 µM
- TGI (NCI-H226): 14.4 µM
- CC50 (NCI-H226): 8.91 µM
- GI50 (HOP-92): 2.45 µM
- TGI (HOP-92): 6.16 µM
- CC50 (HOP-92; read-out: LC50 (the source's name)): 31.6 µM
- GI50 (K562): 3.54 µM
- TGI (K562): 15.1 µM
- CC50 (K562): 75.9 µM

Structure (SMILES): ClCc1ccc(Cn2cnc3c(Cl)nc(Cl)nc32)cc1
- GI50 (OVCAR-8): 19.9 µM
- LC50 (concentration killing 50% of cells) (OVCAR-8): 72.4 µM
- TGI (OVCAR-8): 38 µM
- GI50 (OVCAR-5): 18.2 µM
- TGI (OVCAR-5): 34.7 µM
- CC50 (OVCAR-5): 66.1 µM
- GI50 (UACC-257): 16.2 µM
- LC50 (concentration killing 50% of cells) (UACC-257): 69.2 µM
- TGI (UACC-257): 33.1 µM
- GI50 (SK-MEL-28): 2.69 µM
- LC50 (concentration killing 50% of cells) (SK-MEL-28): 46.8 µM
- TGI (SK-MEL-28): 6.92 µM
- GI50 (M14): 10.7 µM
- LC50 (M14): 53.7 µM
- TGI (M14): 24 µM
- GI50 (U-251): 2.04 µM
- LC50 (concentration killing 50% of cells) (U-251): 7.41 µM
- TGI (U-251): 3.89 µM
- GI50 (SNB-75): 3.16 µM
- TGI (SNB-75): 9.33 µM
- CC50 (SNB-75): 45.7 µM
- GI50 (SNB-19): 2.51 µM
- LC50 (SNB-19): > 100 µM
- TGI (SNB-19): 7.08 µM
- GI50 (MDA-MB-435): 12.6 µM
- LC50 (MDA-MB-435): 50.1 µM
- TGI (MDA-MB-435): 25.1 µM
- GI50 (BT-549): 15.8 µM
- LC50 (50% lethal concentration) (BT-549): 56.2 µM
- TGI (BT-549): 29.5 µM
- GI50 (Hs-578T): 2.14 µM
- LC50 (Hs-578T): > 100 µM
- TGI (Hs-578T): 5.75 µM
- GI50 [1]: 16.6 µM
- LC50 (concentration killing 50% of cells) [1]: > 100 µM
- TGI [1]: > 100 µM
- GI50 (MCF7 [2]): 1.74 µM
- LC50 (concentration killing 50% of cells) (MCF7 [2]): > 100 µM
- TGI (MCF7 [2]): 3.98 µM
- GI50 (SN12C): 7.24 µM
- LC50 (50% lethal concentration) (SN12C): 51.3 µM
- TGI (SN12C): 20.9 µM
- GI50 (TK-10): 6.61 µM
- TGI (TK-10): 20.4 µM
- CC50 (TK-10): 44.7 µM
- GI50 (CAKI-1): 9.12 µM
- TGI (CAKI-1): 21.4 µM
- CC50 (CAKI-1): 46.8 µM
- GI50 (SF-268): 2.51 µM
- TGI (SF-268): 5.37 µM
- CC50 (SF-268): 42.7 µM
- GI50 (HT-29): 2.88 µM
- TGI (HT-29): > 100 µM
- CC50 (HT-29): > 100 µM
- GI50 (COLO 205): 3.47 µM
- TGI (COLO 205): > 100 µM
- CC50 (COLO 205): > 100 µM
- GI50 (NCI-H522): 22.4 µM
- TGI (NCI-H522): 46.8 µM
- CC50 (NCI-H522): 97.7 µM
- GI50 (NCI-H460 [3]): 2.4 µM
- TGI (NCI-H460 [3]): 4.9 µM
- CC50 (NCI-H460 [3]): 28.8 µM
- GI50 (NCI-H23): 7.59 µM
- TGI (NCI-H23): 23.4 µM
- CC50 (NCI-H23): 58.9 µM
- GI50 (NCI-H226): 3.55 µM
- TGI (NCI-H226): 9.55 µM
- CC50 (NCI-H226): 33.9 µM
- GI50 (K562): 23.4 µM
- TGI (K562): 66.1 µM
- CC50 (K562): > 100 µM
- growth at 100 µM (MCF7 [4]): 0%
- growth at 100 µM (NCI-H460 [5]): 0%
